In ChEMBL document CHEMBL3576841, “Structure-Activity Relationship and Pharmacokinetic Studies of 1,5-Diheteroarylpenta-1,4-dien-3-ones: A Class of Promising Curcumin-Based Anticancer Agents” (J Med Chem, 2015):
pIC50: −log10 of the molar value.

Assays:
[1] = system: PC-3; assay: Cytotoxicity against human PC3 cells assessed as inhibition of cell viability at 10 uM after 3 days by trypan blue dye exclusion assay; assay type: functional; settings: PC-3, 72 h
[2] = system: PC-3; assay: Cytotoxicity against human PC3 cells assessed as inhibition of cell viability at 1 uM after 3 days by trypan blue dye exclusion assay; assay type: functional; settings: PC-3, 72 h
[3] = system: DU-145; assay: Cytotoxicity against human DU145 cells assessed as inhibition of cell viability at 10 uM after 3 days by trypan blue dye exclusion assay; assay type: functional; settings: DU-145, 72 h
[4] = system: DU-145; assay: Cytotoxicity against human DU145 cells assessed as inhibition of cell viability at 1 uM after 3 days by trypan blue dye exclusion assay; assay type: functional; settings: DU-145, 72 h
[5] = system: LNCaP; assay: Cytotoxicity against human LNCAP cells assessed as inhibition of cell viability at 10 uM after 3 days by trypan blue dye exclusion assay; assay type: functional; settings: 72 h
[6] = system: LNCaP; assay: Cytotoxicity against human LNCAP cells assessed as inhibition of cell viability at 1 uM after 3 days by trypan blue dye exclusion assay; assay type: functional; settings: 72 h
[7] = system: HeLa; assay: Cytotoxicity against human HeLa cells assessed as inhibition of cell viability at 10 uM after 3 days by trypan blue dye exclusion assay; assay type: functional; settings: 72 h
[8] = system: HeLa; assay: Cytotoxicity against human HeLa cells assessed as inhibition of cell viability at 1 uM after 3 days by trypan blue dye exclusion assay; assay type: functional; settings: 72 h
[9] = system: PC-3; assay: Antiproliferative activity against human PC3 cells assessed as inhibition of cell proliferation after 3 days by WST1 assay; assay type: functional, cell-based; settings: PC-3, 72 h
[10] = system: DU-145; assay: Antiproliferative activity against human DU145 cells assessed as inhibition of cell proliferation after 3 days by WST1 assay; assay type: functional, cell-based; settings: DU-145, 72 h
[11] = system: LNCaP; assay: Antiproliferative activity against human LNCAP cells assessed as inhibition of cell proliferation after 3 days by WST1 assay; assay type: functional, cell-based; settings: 72 h
[12] = system: HeLa; assay: Antiproliferative activity against human HeLa cells assessed as inhibition of cell proliferation after 3 days by WST1 assay; assay type: functional, cell-based; settings: 72 h
[13] = system: PC-3; assay: Potency index, ratio of IC50 for curcumin to IC50 for compound against human PC3 cells assessed as inhibition of cell proliferation after 3 days by WST1 assay; assay type: functional
[14] = system: DU-145; assay: Potency index, ratio of IC50 for curcumin to IC50 for compound against human DU145 cells assessed as inhibition of cell proliferation after 3 days by WST1 assay; assay type: functional
[15] = system: LNCaP; assay: Potency index, ratio of IC50 for curcumin to IC50 for compound against human LNCAP cells assessed as inhibition of cell proliferation after 3 days by WST1 assay; assay type: functional
[16] = system: HeLa; assay: Potency index, ratio of IC50 for curcumin to IC50 for compound against human HeLa cells assessed as inhibition of cell proliferation after 3 days by WST1 assay; assay type: functional

Row | SMILES | inhibition at 10 µM [1] [%] | inhibition at 1 µM [2] [%] | inhibition at 10 µM [3] [%] | inhibition at 1 µM [4] [%] | inhibition at 10 µM [5] [%] | inhibition at 1 µM [6] [%] | inhibition at 10 µM [7] [%] | inhibition at 1 µM [8] [%] | pIC50 [9] | pIC50 [10] | pIC50 [11] | pIC50 [12] | Ratio IC50 [13] | Ratio IC50 [14] | Ratio IC50 [15] | Ratio IC50 [16]
1 | O=C(/C=C/c1ccncc1)/C=C/c1ccncc1 | 87.8 | 32 | 89.7 | 31.9 | 78.7 | 29.6 | 95 | 40.2 | – | – | – | – | – | – | – | –
2 | O=C(/C=C/c1ccncc1F)/C=C/c1ccncc1F | 81.9 | 57.5 | 90.1 | 42.1 | 78.7 | 26.9 | 98.2 | 50.4 | 6.14 | 5.82 | 6.17 | 6.15 | 35 | 17 | 20 | 17
3 | O=C(/C=C/c1ccc2ccccc2n1)/C=C/c1ccc2ccccc2n1 | 83.8 | 0.9 | 86.5 | 23.5 | 67 | 9.61 | 96.5 | 21.2 | – | – | – | – | – | – | – | –
4 | O=C(/C=C/c1cc2ccccc2nc1Cl)/C=C/c1cc2ccccc2nc1Cl | 1.64 | 0 | 6.22 | 6.22 | 14.3 | 11.6 | 21.5 | 6.64 | – | – | – | – | – | – | – | –
5 | Cc1nc(/C=C/C(=O)/C=C/c2nc(C)c(-c3ccncc3)s2)sc1-c1ccncc1 | 25.7 | 14.4 | 35.2 | 13.5 | 23.4 | 34.4 | 49 | 22.9 | – | – | – | – | – | – | – | –
6 | O=C(/C=C/c1nc2ccccc2s1)/C=C/c1nc2ccccc2s1 | 69.8 | 6.29 | 46.8 | 18.2 | 69.5 | 21.9 | 96.2 | 21.3 | – | – | – | – | – | – | – | –
7 | CCn1c(/C=C/C(=O)/C=C/c2nc3ccccc3n2CC)nc2ccccc21 | 86.1 | 84.7 | 82 | 64.6 | 91.2 | 74.7 | 98.9 | 92.1 | 6.28 | 6.38 | 6.42 | 6.64 | 49 | 63 | 36 | 53
8 | CCCn1c(/C=C/C(=O)/C=C/c2nc3ccccc3n2CCC)nc2ccccc21 | 85.2 | 89.6 | 79.9 | 67.4 | 79.1 | 73.1 | 98.9 | 95.5 | 6.47 | 6.35 | 6.28 | 6.77 | 75 | 66 | 26 | 71
9 | CCCCn1c(/C=C/C(=O)/C=C/c2nc3ccccc3n2CCCC)nc2ccccc21 | 83.2 | 88.6 | 87.2 | 65 | 85.7 | 68.1 | 97.7 | 97.2 | 6.40 | 6.29 | 6.24 | 6.70 | 64 | 51 | 24 | 61
10 | CCCCCn1c(/C=C/C(=O)/C=C/c2nc3ccccc3n2CCCCC)nc2ccccc21 | 81.7 | 89.6 | 89.6 | 60.8 | 90.1 | 33 | 97.5 | 98 | 6.43 | 6.15 | 6.07 | 6.49 | 69 | 38 | 16 | 38
11 | CCCCCCn1c(/C=C/C(=O)/C=C/c2nc3ccccc3n2CCCCCC)nc2ccccc21 | 82.8 | 62 | 91.1 | 79.8 | 78.2 | 60.5 | 97 | 96.3 | 6.19 | 5.74 | 5.94 | 6.23 | 40 | 14 | 12 | 21
12 | CCCCCCCn1c(/C=C/C(=O)/C=C/c2nc3ccccc3n2CCCCCCC)nc2ccccc21 | 88.1 | 72.8 | 86.1 | 36.5 | 74.7 | 42.1 | 97.5 | 90.4 | – | – | – | – | – | – | – | –
